Results as given in patent US6239284A, “Aromatic tetracyclic compounds of the retinoid type method for preparing and use” (priority 1997, dated 2001).
“Also recorded” adds a separate entry of the source.

Key:
RARα = experiment: Transactivation of chimerical receptor RARα-ERcassette, transient transfection of HeLa cells; format: cell-based; conditions: for RAR-ERcassette RARα transactivation (%): 100% = TTNPB 10^-8 M
Excerpt: (§1) The HeLa cells are co-transfected by a plasmid which codes for a retinoic receptor in which the C domain of bonding to the DNA is substituted by that of the receptor to RE estrogens, and a plasmid which places the expression of the luciferase under the control of an ERE (Element of Response to Estrogens). The expressed chimerical receptors are designated as RARα-ERcassette, RARβ-ERcassette, RARγ-ERcassette and RXRα-ERcassette. The A, B, D, E and F regions of the natural receptor are preserved as well as the transcriptional co-operation between the activation domains AF-1 and AF-2. These transitory transfection experiments follow the method of co-precipitation to calcium phosphate. The HeLa cells are co-transfected by […] of plasmid coding for the chimerical receptor, […] of reporter plasmid and […] of expression vector CMV-β-galactosidase used as an internal control of transfection. 24 hours after the transfection, the cells are incubated for 16 hours with the different effectors.
(§2) In this type of chimerical receptor, the C domain of bonding to the DNA of RAR is substituted by that of the receptor to the RE estrogens. The protein obtained is close to the natural RAR receptor and preserves the transcriptional properties of the AF-1 and AF-2 domains. It modulates the transcription by means of an ERE. This RAR-ERcassette model allows one to observe a transcriptional response to a more physiological ligand.
(§3) The study of the selectivity of the compounds was carried out with the RAR-ERcassette chimerical receptors model.
(§4) On one and the same line in the Table, the cis (Z) compound represents the isomeric structure of the trans (E) compound.

RARβ = experiment: Transactivation of chimerical receptor RARβ-ERcassette, transient transfection of HeLa cells; format: cell-based; conditions: -6 log M (1 μM); 100% = TTNPB 10^-8 M
Excerpt: as §1, §2, §3, §4

RARγ = experiment: Transactivation of chimerical receptor RARγ-ERcassette, transient transfection of HeLa cells; format: cell-based; conditions: -6 log M (1 μM); 100% = TTNPB 10^-8 M
Excerpt: as §1, §2, §3, §4

RARE = experiment: HRLN transactivation (stably transfected HeLa, RARE3-tk-Luc, endogenic receptors); format: cell-based
Excerpt: The cellular lineages HRLN and HRL+N allow one to study the activation of an RARE by endogenic receptors using ligands at physiological concentrations. These lineages derive from HeLa cells transfected in a stable fashion by a reporter gene which places the expression of the gene of the luciferase under the control of a nuclear response element RARE (RARE3 -tk-Luc). The HeLa cells express all the known receptors of the retinoic acid (RARα,β,γ and RXRα,β,γ) with a predominance of RARα and RXRα. The response element RARE used for the HRLN cells corresponds to the sequence of the natural gene of the RARβ receptor (GGTTCAnnnnnAGTTCA). The HRL+N cells comprise the sequence GAGTGAnnnnnCGGTGA.

ERE = experiment: Anti-estrogenic effect, MELN cellular lineage (MCF-7 with ERE-βGlob-Luc) activated by estradiol; format: cell-based, human; conditions: for inhibition at 1 µM: -6 log M (10^-6 M), 10^-9 M estradiol
Protocol: MCF-7 cells express RARα,γ and RXRα. The transfection of MCF-7 cells by an estrogen-dependent gene (ERE-βGlob-Luc) has permitted the establishment of the MELN cellular lineage, used to determine the anti-oestrogenic activity of the retinoids. These cells contain the gene of the luciferase under the transcriptional control of the promoter of the βGlobine and of the response element ERE isolated from the gene of chicken vitelogenine A2. The experiments are carried out with MELN cells activated by 10^-9 M estradiol. The level of base activity of the MELN cells is obtained with the anti-estrogen 1 μM 4-OH-tamoxifen (hydroxytamoxifen).
The effect of the products tested on the cells activated by 10^-9 M estradiol is expressed as a percentage, the level of base activity being deducted.

RAR = experiment: RAR-ERcassette model, specificity profile (transient transfection of HeLa cells); format: cell-based
Excerpt: as §1, §2, §3

AP-1 = experiment: Anti-AP-1 effect, MTLN cellular lineage (MCF-7 with (TRE)3-tk-Luc) activated by TPA; format: cell-based, human
Protocol: The anti-factor AP-1 transrepressor effect of retinoids is determined using the MTLN lineage, coming from MCF-7 cells transfected in a stable fashion by a vector p(TRE)3 -tk-Luc which places the expression of the gene of luciferase under the control of […]. TPA activates the AP-1 complex formed from proteins of the family of nuclear proto-oncogenes (c-Jun and c-Fos). […] The experiments ware made with the MTLN cells activated by 10^-7 M TPA.
The effect of the compounds on the MTLN cells activated by 10^-7 M TPA is expressed as a percentage. […] The inhibitive properties of the products are calculated after deduction of the base activity of the cells. The percentages reported correspond to a range of inhibitions determined from several experiments.

T-47D cells = experiment: Anti-proliferation effect, estrogen-induced growth of T-47D cells; format: cell-based, human; conditions: Homo sapiens, T47D, 168 h, read-out: T-47D IC50 (growth inhibition by 50%)
Protocol: So as to test the anti-proliferation effect of the retinoids, growth experiments under oestrogenic conditions were carried out on cells MCF-7 and T-47D. These are the human estrogen-dependent mammary cancer cells which express the receptor to RE estrogens. The effect of the molecules is evaluated after 7 days of culture in oestrogenic conditions (estradiol 10^-9 M) by dosing the cellular DNA. The cells are distributed in 24 well plates at a density of 2×10^4 cells per well. The tests with the different retinoids are carried out in triplicate and the culture medium is changed after 4 days of growth.
The effect of the retinoids on the growth of MCF-7 and T-47D cells is evaluated after 7 days of culture in the presence of 10^-9 M estradiol by dosing the cellular DNA.

[1] = Homo sapiens, read-out: Anti-oestrogenic effect, Inhibition (%)

In the case of `CC1Cc2cc(C(=O)O)ccc2/C1=C/c1ccc2c(c1)C(C)(C)CCC2(C)C` (centres unmarked) [CB52809, (E) 1-[2-(5,6,7,8-tetrahydro-5,5,8,8-tetramethyl)naphthalenylmethylene]-2,3-dihydro-2-methyl-1H-indene-5-carboxylic acid], the “RAR-ERcassette RARα transactivation (%)” value (RARα; -6 log M (1 μM)) is reported as 5%, the “RAR-ERcassette RARβ transactivation (%)” value (RARβ) is reported as 0% and the “RAR-ERcassette RARγ transactivation (%)” value (RARγ) is reported as 13%. The activation at 1 µM (RARE; Homo sapiens, HeLa) was 0% and the inhibition at 1 µM (ERE; [1]) was 0%.
`CC1(C)CCC(C)(C)c2cc(/C=C3\CCCc4cc(C(=O)O)ccc43)ccc21` [CB66049, (E) 1-[2-(5,6,7,8-tetrahydro-5,5,8,8-tetramethyl)naphthalenylmethylene]-1,2,3,4-tetrahydronaphthalene-6-carboxylic acid] was tested, and the “RAR-ERcassette RARα transactivation (%)” value (RARα; -6 log M (1 μM)) was 0%, the “RAR-ERcassette RARβ transactivation (%)” value (RARβ) was 0% and the “RAR-ERcassette RARγ transactivation (%)” value (RARγ) was 8%. For the same molecule, the “HRLN transactivation in words” value (RARE) was “inactive”, the activation at 1 µM (RARE; Homo sapiens, HeLa) was 0% and the “RAR-ERcassette profile in words” value (RAR) was “The same result is observed”.
With `CC1(C)CCC(C)(C)c2cc(/C=C3\CCc4cc(C(=O)O)ccc43)ccc21` [CB78937, (E) 1-[2-(5,6,7,8-tetrahydro-5,5,8,8-tetramethyl)naphthalenylmethylene]-2,3-dihydro-1H-indene-5-carboxylic acid] the “RARα transactivation (RAR-ERcassette) in words” value (RARα) was “inactive on RARα”, the “RAR-ERcassette RARα transactivation (%)” value (RARα; -6 log M (1 μM)) was 18% and the “RAR-ERcassette RARβ transactivation (%)” value (RARβ) was 65%. The “RAR-ERcassette RARγ transactivation (%)” value (RARγ) was 93%, the “HRLN transactivation in words” value (RARE) was “partial transactivation” and the activation at 1 µM (RARE; Homo sapiens, HeLa) was 25%. For the same molecule, the inhibition at 1 µM (ERE; [1]) was 4% and the “RAR-ERcassette profile in words” value (RAR) was “RARβ,γ specificity; also recorded: RARβ,γ selectivity”.
`CC1(C)CCC(C)(C)c2cc(/C=C3/CCc4cc(C(=O)O)ccc43)ccc21` [CB27871] was tested, and the “RAR-ERcassette RARα transactivation (%)” value (RARα; -6 log M (1 μM)) was 29%, the “RAR-ERcassette RARβ transactivation (%)” value (RARβ) was 36% and the “RAR-ERcassette RARγ transactivation (%)” value (RARγ) was 67%. For the same molecule, the “HRLN transactivation in words” value (RARE) was “partial transactivation” and the activation at 1 µM (RARE; Homo sapiens, HeLa) was 27%.
In the case of `Cc1cc2c(cc1/C=C1\CCc3cc(-c4nnn[nH]4)ccc31)C(C)(C)CCC2(C)C` [CB23804, (E) 5-[1-[2-(5,6,7,8-tetrahydro-3,5,5,8,8-pentamethyl)naphthalenylmethylene]-2,3-dihydro-1H-indenyl]-1H-tetrazole], the “RAR-ERcassette RARα transactivation (%)” value (RARα; -6 log M (1 μM)) is reported as 4%, the “RAR-ERcassette RARβ transactivation (%)” value (RARβ) is reported as 28% and the “RAR-ERcassette RARγ transactivation (%)” value (RARγ) is reported as 19%. The “HRLN transactivation in words” value (RARE) was “slightly active”, the activation at 1 µM (RARE; Homo sapiens, HeLa) was 15% and the inhibition at 1 µM (ERE; [1]) was 0%. The “RAR-ERcassette profile in words” value (RAR) was “weakly active”.
With `Cc1cc2c(cc1/C=C1\CCc3cc(C(=O)O)ccc31)C(C)(C)CCC2(C)C` [CB40341, (E) 1-[2-(5,6,7,8-tetrahydro-3,5,5,8,8-pentamethyl)naphthalenylmethylene]-2,3-dihydro-1H-indene-5-carboxylic acid] the “RARα transactivation (RAR-ERcassette) in words” value (RARα) was “inactive on RARα”, the “RAR-ERcassette RARα transactivation (%)” value (RARα; -6 log M (1 μM)) was 14% and the “RAR-ERcassette RARβ transactivation (%)” value (RARβ) was 75%. The “RAR-ERcassette RARγ transactivation (%)” value (RARγ) was 79%, the “HRLN transactivation in words” value (RARE) was “partial transactivation” and the activation at 1 µM (RARE; Homo sapiens, HeLa) was 30%. For the same molecule, the “RAR-ERcassette profile in words” value (RAR) was “RARβ,γ specificity; also recorded: RARβ,γ selectivity”.
For `CCCCCCCOc1cc2c(cc1/C(C)=C/c1ccc(C(=O)O)cc1)C(C)(C)CCS2(=O)=O` [Ro 41-5253], the “HRLN transactivation in words” value (RARE) was “totally abolishes the response of Am580 and partially abolishes that of TTNPB”, the “Anti-AP-1 effect (MTLN) in words” value (AP-1) was “does not allow the inhibition induced by TTNPB to be totally lifted” and the “Anti-estrogenic effect (MELN) in words” value (ERE) was “raises the inhibitor effect of Am580 and also of TTNPB”.
With `CC1=C(/C=C/C(C)=C\C=C\C(C)=C\C(=O)O)C(C)(C)CCC1` [9-cis RA, reference compound] the “RAR-ERcassette RARα transactivation (%)” value (RARα; -6 log M (1 μM)) was 348%, the “RAR-ERcassette RARα transactivation (%)” value (RARα; -7 log M) was 187% and the “RAR-ERcassette RARα transactivation (%)” value (RARα; -8 log M) was 60%. The “RAR-ERcassette RARα transactivation (%)” value (RARα; -9 log M) was 7%, the IC50 (T-47D cells) was 25.1 ± 1.4 nM and the “HRLN transactivation in words” value (RARE) was “dose-dependent activation”. The Emax (RARE; Homo sapiens, HeLa, read-out: HRLN transactivation E max %) was 196%, the “Anti-AP-1 effect, Inhibition (%)” value (AP-1; -8 log M, 10^-7 M TPA, range of several experiments) was 30-37% and the inhibition at 0.1 µM (ERE; [1]) was 35%. The “RAR-ERcassette profile in words” value (RAR) was “induce an over-expression of luciferase in comparison to the induction brought about by a synthetic compound (TTNPB)”.
In the case of `CC1(C)CCC(C)(C)c2cc(/C=C3/CCCc4cc(C(=O)O)ccc43)ccc21` [CB80830, (Z) 1-[2-(5,6,7,8-tetrahydro-5,5,8,8-tetramethyl)naphthalenylmethylene]-1,2,3,4-tetrahydronaphthalene-6-carboxylic acid], the “RAR-ERcassette RARα transactivation (%)” value (RARα; -6 log M (1 μM)) is reported as 2%, the “RAR-ERcassette RARβ transactivation (%)” value (RARβ) is reported as 0% and the “RAR-ERcassette RARγ transactivation (%)” value (RARγ) is reported as 1%. For the same molecule, the “HRLN transactivation in words” value (RARE) was “inactive”, the activation at 1 µM (RARE; Homo sapiens, HeLa) was 4% and the inhibition at 1 µM (ERE; [1]) was 2%. The “RAR-ERcassette profile in words” value (RAR) was “The same result is observed”.
`CC1(C)CCC(C)(C)c2cc(/C=C3\CCc4cc(-c5nnn[nH]5)ccc43)ccc21` [CB99811, (E) 5-[1-[2-(5,6,7,8-tetrahydro-5,5,8,8-tetramethyl)naphthalenylmethylene]-2,3,-dihydro-1H-indenyl]-1H-tetrazole] was tested, and the “RAR-ERcassette RARα transactivation (%)” value (RARα; -6 log M (1 μM)) was 3%, the “RAR-ERcassette RARβ transactivation (%)” value (RARβ) was 11% and the “RAR-ERcassette RARγ transactivation (%)” value (RARγ) was 14%. The “RAR-ERcassette profile in words” value (RAR) was “weakly active”.
